Measurements taken from patent publication US8815833B2, “Stable amifostine liquid concentrate” (Seidose, LLC, priority 2006, dated 2014).
≈ marks a conversion by molar mass, not a printed value. Like-named read-outs stand apart in the source and are kept apart here. Marks after values point to notes of the source that are not given here. One block for each compound: values may come before it.

Key:
[1] = cited from earlier work
[2] = Approximate concentration of ionic species as function of pH according to the pKa values; type: physicochemical
Source text: There are four pKas for amifostine. The Merck Index lists them to be <2.0, 4.2, 9.0 and 11.7. The amino groups (2) and the phosphate group (2 pKa per group) can all be completely protonated. [Ref: Structure of Radio protective agent S-2(3-Aminoprpropylamino)ethylphosphorthioic acid (WR 2721) Jean Karle, Acta Cryst (1988) C44 135-138]. The usual form crystallized from solution is a double zwitterion with the phosphate completely dissociated (−2) and the amino groups fully protonated (+2). It is usually drawn with the amines in their free base form and the phosphate completely protonated but that is not how it exists in solution. So, the two pKa values from the double zwitterion are for the two amino functions ionizing (i.e., pKas 3 & 4). The first two pKas are for the phosphate which are perturbed by the two positive charges on the amino groups which pushes them lower than pKa1 and pKa2 for phosphoric acid. The following table describes the ionic nature of the compound as function of pH according to the pKa values reported in the Merck Index. The table also summarizes the approximate concentration of ionic species as function of pH:
(§1) At pH 9.0, 50% of the amifostine is present as the double zwitterion and 50% of amine 1 (primary amine) is present as the free base form making 50% of the amifostine have a net negative charge. At pH 10.0, only 10% of amifostine is present as a double zwitterion and the other 90% has a net negative charge; amine 1 is mainly in the free base form. […] Approximately 1% is present as the double zwitterion. More importantly, 17% of amifostine has both amines in the un-ionized form as free bases and this particular ionic species of the molecule carries about −2 charge. At this pH (11), it is observed that there is a significant improvement in the stability. […] At pH 13, over 95% of the amifostine is present with both amines in their free base forms with improved stability.

[3] = physchem; type: physicochemical; settings: for crystallization of solution: 200 mg/ml solution
Protocol: Amifostine is a phospho ester compound that is used pharmacologically for the amelioration of side effects of radiation and chemotherapy. The compound is currently marketed as a lyophilizate of a crystalline trihydrate of amifostine, typically in vials of 500 mg, which is reconstituted to a final administration concentration of 5 to 40 mg/ml for IV infusion. […] Amifostine is known to undergo hydrolysis in aqueous solution at acidic, neutral, and mild basic conditions. Thus, it was believed that stable aqueous formulations that would not hydrolyze to any appreciable extent over typical storage time periods were not likely to be found. […] Thus, aqueous liquid concentrates of amifostine were simply thought not possible. Because such an aqueous liquid amifostine concentrate would eliminate a potential source of dosing errors in clinical practice, there is clearly a need for the same.
as §1

[4] = Hydrolysis of amifostine to free thiol metabolite as function of pH (stability evaluations); type: physicochemical
Source text: At pH 7.4, the intrinsic pH, amifostine has a net neutral charge as a double zwitterion with the phosphate completely dissociated (−2) and the amino groups fully protonated (+2). During stability evaluations carried out for the purposes of the present invention it was observed that the hydrolysis of amifostine to release free thiol metabolite is rapid at acidic pH and even at weakly acidic pH. On the other hand, the hydrolysis was almost 100-fold slower at pH 10 and above.

[5] = Merck Index, cited from earlier work
[6] = Storage stability of amifostine solutions by stability indicating HPLC method (% remaining); type: physicochemical
Protocol: As will be seen below in Example 1, a 250 mg/ml liquid concentrate was prepared at pH 9, and 200 mg/ml liquid concentrates were prepared at pH 10.5, 11.5, 12.5 and 13. The stability was monitored at 40° C., 25° C. and 5° C. by a stability indicating HPLC method using the following HPLC conditions:
Solutions of amifostine at 200 mg/ml or 250 mg/ml were prepared at the pHs shown in the table below and stored at the temperatures indicated for the times indicated. “% remaining” in the table below is determined by the HPLC method described earlier in the specification.

SMILES: NCCCNCCSP(=O)(O)O [amifostine trihydrate]
crystallization of solution ([1]; about 200 mg/ml solution in water stored at refrigerated conditions): substantial crystallization results
aqueous solubility in water ([1]; ambient conditions): about 200 mg/ml

Prim. amine (pKa 9.0) Protonated ([2]; pH 7): ~100%
Prim. amine (pKa 9.0) Unprotonated ([2]; pH 7): ~0%
Sec. amine (pKa 11.7) Protonated ([2]; pH 7): ~100%
Sec. amine (pKa 11.7) Unprotonated ([2]; pH 7): ~0%
Prim. amine (pKa 9.0) Protonated ([2]; pH 9): ~50%
Prim. amine (pKa 9.0) Unprotonated ([2]; pH 9): ~50%
Sec. amine (pKa 11.7) Protonated ([2]; pH 9): ~100%
Sec. amine (pKa 11.7) Unprotonated ([2]; pH 9): ~0%
amine 1 present as free base form, net negative charge ([2]; pH 9.0): 50%
present as the double zwitterion ([2]; pH 9.0): 50%
Prim. amine (pKa 9.0) Protonated ([2]; pH 10): ~10%
Prim. amine (pKa 9.0) Unprotonated ([2]; pH 10): ~90%
Sec. amine (pKa 11.7) Protonated ([2]; pH 10): ~100%
Sec. amine (pKa 11.7) Unprotonated ([2]; pH 10): ~0%
has a net negative charge (amine 1 free base) ([2]; pH 10.0): 90%
present as a double zwitterion ([2]; pH 10.0): 10%
Prim. amine (pKa 9.0) Protonated ([2]; pH 11): ~1%
Prim. amine (pKa 9.0) Unprotonated ([2]; pH 11): ~99%
Sec. amine (pKa 11.7) Protonated ([2]; pH 11): ~83%
Sec. amine (pKa 11.7) Unprotonated ([2]; pH 11): ~17%
both amines in the un-ionized form as free bases (about -2 charge) ([2]; pH 11.5 solution): 17%
present as the double zwitterion ([2]; pH 11.5 solution): Approximately 1%
Prim. amine (pKa 9.0) Protonated ([2]; pH 12): ~0.1%
Prim. amine (pKa 9.0) Unprotonated ([2]; pH 12): >99.9%
Sec. amine (pKa 11.7) Protonated ([2]; pH 12): ~33%
Sec. amine (pKa 11.7) Unprotonated ([2]; pH 12): ~67%
Prim. amine (pKa 9.0) Protonated ([2]; pH 13): ~0.01%
Prim. amine (pKa 9.0) Unprotonated ([2]; pH 13): 99.99%^
Sec. amine (pKa 11.7) Protonated ([2]; pH 13): <5%
Sec. amine (pKa 11.7) Unprotonated ([2]; pH 13): >95%
present with both amines in their free base forms ([2]; pH 13): over 95%
crystallization of solution ([3]; below pH 10, refrigeration conditions): crystallizes out
solubility ([3]; 5 °C, pH 10, water): ~100 mg/mL (≈ 467 mM)
hydrolysis to release free thiol metabolite ([4]; acidic pH and even weakly acidic pH): rapid
hydrolysis slower than at acidic / weakly acidic pH ([4]; pH 10 and above): ~100 fold
potency loss ([6]; 5° C., 180-day storage, pH 12.5 and 13 formulations): ≤ 3%
% remaining ([6]; pH 7.4, 200 mg/ml, 25° C., 7 days): 89%
% remaining ([6]; pH 7.4, 200 mg/ml, 25° C., 14 days): 78%
% remaining ([6]; pH 7.4, 200 mg/ml, 25° C., 25 days): 60%
% remaining ([6]; pH 7.4, 200 mg/ml, 25° C., 33 days): 52%
% remaining ([6]; pH 7.4, 200 mg/ml, 40° C., 2 days): 71%
% remaining ([6]; pH 7.4, 250 mg/ml, 40° C., 1 day): 84%
% remaining ([6]; pH 7.4, 250 mg/ml, 40° C., 2 days): 66%
% remaining ([6]; pH 7.4, 250 mg/ml, 40° C., 3 days): 57%
% remaining ([6]; pH 9.0, 250 mg/ml, 5° C., 90 days): 96%
% remaining ([6]; pH 9.0, 250 mg/ml, 5° C., 180 days): 91* %
% remaining ([6]; pH 9.0, 250 mg/ml, 25° C., 10 days): 83%
% remaining ([6]; pH 9.0, 250 mg/ml, 25° C., 25 days): 60%
% remaining ([6]; pH 9.0, 250 mg/ml, 40° C., 1 day): 83%
% remaining ([6]; pH 10.5, 200 mg/ml, 5° C., 90 days): 94%
% remaining ([6]; pH 10.5, 200 mg/ml, 5° C., 180 days): 90%
% remaining ([6]; pH 10.5, 200 mg/ml, 25° C., 10 days): 85%
% remaining ([6]; pH 10.5, 200 mg/ml, 25° C., 25 days): 62%
% remaining ([6]; pH 10.5, 200 mg/ml, 25° C., 35 days): 57%
% remaining ([6]; pH 10.5, 200 mg/ml, 25° C., 60 days): 39%
% remaining ([6]; pH 10.5, 200 mg/ml, 40° C., 1 day): 84%
% remaining ([6]; pH 10.5, 200 mg/ml, 40° C., 2 days): 75%
% remaining ([6]; pH 11.5, 200 mg/ml, 5° C., 90 days): 93%
% remaining ([6]; pH 11.5, 200 mg/ml, 5° C., 180 days): 92%
% remaining ([6]; pH 11.5, 200 mg/ml, 25° C., 10 days): 86%
% remaining ([6]; pH 11.5, 200 mg/ml, 25° C., 25 days): 64%
% remaining ([6]; pH 11.5, 200 mg/ml, 25° C., 60 days): 51%
% remaining ([6]; pH 11.5, 200 mg/ml, 40° C., 1 day): 90%
% remaining ([6]; pH 12.5, 200 mg/ml, 5° C., 90 days): 99%
% remaining ([6]; pH 12.5, 200 mg/ml, 5° C., 180 days): 97%
% remaining ([6]; pH 12.5, 200 mg/ml, 25° C., 10 days): 94%
% remaining ([6]; pH 12.5, 200 mg/ml, 25° C., 32 days): 86%
% remaining ([6]; pH 12.5, 200 mg/ml, 25° C., 60 days): 74%
% remaining ([6]; pH 12.5, 200 mg/ml, 40° C., 4 days): 77%
% remaining ([6]; pH 13.0, Batch #1, 200 mg/ml, 5° C., 90 days): 99%
% remaining ([6]; pH 13.0, Batch #1, 200 mg/ml, 5° C., 180 days): 98%
% remaining ([6]; pH 13.0, Batch #1, 200 mg/ml, 5° C., 270 days): 95%
% remaining ([6]; pH 13.0, Batch #1, 200 mg/ml, 25° C., 18 days): 96%
% remaining ([6]; pH 13.0, Batch #1, 200 mg/ml, 25° C., 36 days): 82%
% remaining ([6]; pH 13.0, Batch #1, 200 mg/ml, 25° C., 60 days): 74%
% remaining ([6]; pH 13.0, Batch #1, 200 mg/ml, 40° C., 4 days): 85-86%
% remaining ([6]; pH 13.0, Batch#2, 200 mg/ml, 5° C., 90 days): 100%
% remaining ([6]; pH 13.0, Batch#2, 200 mg/ml, 5° C., 180 days): 97%
% remaining ([6]; pH 13.0, Batch#2, 200 mg/ml, 5° C., 270 days): 95%
% remaining ([6]; pH 13.0, Batch#2, 200 mg/ml, 25° C., 18 days): 96%
% remaining ([6]; pH 13.0, Batch#2, 200 mg/ml, 25° C., 36 days): 82%
% remaining ([6]; pH 13.0, Batch#2, 200 mg/ml, 25° C., 90 days): 75%
% remaining ([6]; pH 13.0, batch #3, 200 mg/ml, 5° C., 90 days): 101%
% remaining ([6]; pH 13.0, batch #3, 200 mg/ml, 5° C., 180 days): 97%
% remaining ([6]; pH 13.0, batch #3, 200 mg/ml, 5° C., 270 days): 95%
% remaining ([6]; pH 13.0, batch #3, 200 mg/ml, 25° C., 18 days): 97%
% remaining ([6]; pH 13.0, batch #3, 200 mg/ml, 25° C., 36 days): 82%
% remaining ([6]; pH 13.0, batch #3, 200 mg/ml, 25° C., 90 days): 76%
SMILES: NCCCNCCSP(=O)(O)O [amifostine, S-2(3-Aminoprpropylamino)ethylphosphorthioic acid]
crystallization of solution ([3]; pH 10.0, refrigeration conditions): remained clear with no crystallization observed
pKa ([5]; first pKa (phosphate)): < 2.0
pKa ([5]; fourth pKa (sec. amine, amine 2)): 11.7
pKa ([5]; second pKa (phosphate)): 4.2
pKa ([5]; third pKa (prim. amine, amine 1)): 9.0
